# Measured values: ChEMBL document CHEMBL3046777, “Synthesis of new phenylcarbamoylbenzoic acid derivatives and evaluation of their in vitro antioxidant activity” (Med Chem Res, 2012)
# Assay: Antioxidant activity assessed as […] by ABTS-spectrophotometric assay
# Format: functional
# Set-up: concentration or dose not given beside the values
# Settings: dose or concentration not given here
row,SMILES,inhibition [%]
1,CC(=O)c1ccc(NC(=O)c2ccccc2C(=O)O)cc1,7.42
2,CCOC(=O)c1ccc(NC(=O)c2ccccc2C(=O)O)cc1,4.09
3,C/C(=N\N)c1ccc(NC(=O)c2ccccc2C(=O)O)cc1,18.2
4,C/C(=N\N=C\c1ccccc1)c1ccc(NC(=O)c2ccccc2C(=O)O)cc1,12.9
5,O=C(N/N=C/c1ccccc1)c1ccc(NC(=O)c2ccccc2C(=O)O)cc1,8.78
6,C/C(=N\NC(=O)c1ccc(NC(=O)c2ccccc2C(=O)O)cc1)c1ccc(NC(=O)c2ccccc2C(=O)O)cc1,9.95
7,O=C(N/N=C/c1ccc(Cl)cc1)c1ccc(NC(=O)c2ccccc2C(=O)O)cc1,19.5
8,C/C(=N\N=C(/C)c1ccc(NC(=O)c2ccccc2C(=O)O)cc1)c1ccccc1,9.85
9,C/C(=N\NC(=O)c1ccc(NC(=O)c2ccccc2C(=O)O)cc1)c1ccccc1,2.63
10,C/C(=N\N1C(=O)c2ccccc2C1=O)c1ccc(NC(=O)c2ccccc2C(=O)O)cc1,4.19
11,COc1ccc(/C=N/N=C(\C)c2ccc(NC(=O)c3ccccc3C(=O)O)cc2)cc1,23
12,COc1ccc(/C=N/NC(=O)c2ccc(NC(=O)c3ccccc3C(=O)O)cc2)cc1,4.29
13,C/C(=N\N=C\c1ccc(Cl)cc1)c1ccc(NC(=O)c2ccccc2C(=O)O)cc1,24.8
14,NNC(=O)c1ccc(NC(=O)c2ccccc2C(=O)O)cc1,55.2
15,C/C(=N\N=C(/C)c1ccc(NC(=O)c2ccccc2C(=O)O)cc1)c1ccc(NC(=O)c2ccccc2C(=O)O)cc1,10.6
16,O=C(NN1C(=O)c2ccccc2C1=O)c1ccc(NC(=O)c2ccccc2C(=O)O)cc1,8.39
